From US20030036532A1, “Use of 2-phenylene diamine derivatives for the treatment of infections” (priority 2000, published 2003)

Tested on: Plasmodium falciparum
Experiment: antimalarial activity in in vitro cultures of Plasmodium falciparum, inhibition of [3H]-hypoxanthine incorporation
Type: cell-based
Conditions: inhibition of tritium incorporation relative to comparison without substance, 48 h + 24 h incubation; for % Inhibition at 10 μM / inhibition at 10 µM: 10 μM compound; for % Inhibition at 100 μM / inhibition at 100 µM: 100 μM compound; for inhibition at 10 µM / inhibition at 100 µM: Plasmodium falciparum; for % Inhibition at 1 μM: 1 μM compound
Procedure: To determine the anti-malaria activity, for example, the inhibition of the growth of malaria parasites in blood cultures is determined. […] The plates are incubated at 37° C., 3% CO2 and 5% O2 over a period of 48 hours. 30 μl of medium supplemented with 27 μCi ml^−1 [^3H]-hypoxanthine were then added to each well. After 24 hours' incubation, the parasites were harvested by filtration through glass fiber filters and the incorporated radioactivity was measured. Inhibition of parasite growth was measured as the percentage inhibition of tritium incorporation relative to a comparison without substance. The table states the percentage inhibition in dependence of the concentrations.

Compound | % Inhibition at 10 μM | % Inhibition at 100 μM | inhibition at 10 µM | inhibition at 100 µM | % Inhibition at 1 μM
Cc1ccc(CC(=O)Nc2ccc(NC(=O)c3cccnc3)cc2C(=O)c2ccccc2)cc1 [compound 14, N-[3-benzoyl-4-[2-(4-methylphenyl)acetyl]amino]phenylnicotinic Acid Amide] | 0% | 34% |  |  | 
COC(=O)CCCC(=O)Nc1ccc(NC(=O)Cc2ccc(C)cc2)c(C(=O)c2ccccc2)c1 [example 6] | 0% | 98% |  |  | 
CCCCCCCCCCCCCCCCC(=O)NCC(=O)Nc1ccc(NC(=O)Cc2ccc(C)cc2)c(C(=O)c2ccccc2)c1 [example 7, N-[2-[3-benzoyl-4-[[2-(4-methylphenyl)acetyl]amino]phenylamino]-2-oxoethyl]-heptadecanoic Acid Amide] |  |  | 0% | 83% | 
Cc1ccc(CC(=O)Nc2ccc(NC(=O)CCc3ccccc3)cc2C(=O)c2ccccc2)cc1 [compound 17] | 91% | 94% |  |  | 0%
Cc1ccc(CC(=O)Nc2ccc(NC(=O)C3c4ccccc4-c4ccccc43)cc2C(=O)c2ccccc2)cc1 [compound 28] | 0% | 98% |  |  | 0%
Cc1ccc(CC(=O)Nc2ccc(NC(=O)CCC(=O)O)cc2C(=O)c2ccccc2)cc1 [example 3] | 0% | 38% |  |  | 
Cc1ccc(CC(=O)Nc2ccc(NC(=O)CNC(=O)C=Cc3ccc(-c4ccccc4)cc3)cc2C(=O)c2ccccc2)cc1 [compound 12, N-[2-[3-benzoyl-4-[[2-(4-methylphenyl)acetyl]amino]phenylamino]-2-oxo-ethyl]-4-phenylcinnamic Acid Amide] |  |  | 67% | 89% | 
Cc1ccc(CC(=O)Nc2ccc(-c3ccccc3CNC(=O)CS)cc2C(=O)c2ccccc2)cc1 [compound 29] | 91% | 97% |  |  | 0%
CCCCCCCCCCCCCCC(=O)NCCCC(=O)Nc1ccc(NC(=O)Cc2ccc(C)cc2)c(C(=O)c2ccccc2)c1 [example 8, N-[4-[3-benzoyl-4-[[2-(4-methylphenyl)acetyl]amino]phenylamino]-4-oxobutyl]-pentadecanoic Acid Amide] |  |  | 0% | 93% | 
Cc1ccc(CC(=O)Nc2ccc(NC(=O)CCC3CCCCC3)cc2C(=O)c2ccccc2)cc1 [compound 18] | 98% | 98% |  |  | 9%
Cc1ccc(CC(=O)Nc2ccc(NC(=O)C=Cc3ccc([N+](=O)[O-])cc3)cc2C(=O)c2ccccc2)cc1 [compound 22] | 82% | 88% |  |  | 0%
Cc1ccc(CC(=O)Nc2ccc(NC(=O)CSCc3ccc([N+](=O)[O-])cc3)cc2C(=O)c2ccccc2)cc1 [compound 32] | 0% | 96% |  |  | 0%
O=C(C=Cc1ccc(OCc2ccccc2)cc1)NCCC(=O)Nc1ccc(NC(=O)Cc2ccccc2)c(C(=O)c2ccccc2)c1 [compound 13, N-[3-[3-benzoyl-4-[(2-phenylacetyl)amino]phenylamino]-3-oxopropyl]-4-benzyl-oxycinnamic Acid Amide] |  |  | 97% | 95% | 
Cc1ccc(CC(=O)Nc2ccc(NC(=O)c3ccccc3)cc2C(=O)c2ccccc2)cc1 [compound 15] | 77% | 96% |  |  | 0%
Cc1ccc(CC(=O)Nc2ccc(NC(=O)COCc3ccccc3)cc2C(=O)c2ccccc2)cc1 [compound 30] | 93% | 97% |  |  | 0%
COC(=O)CC(=O)Nc1ccc(NC(=O)C(C)c2ccccc2)c(C(=O)c2ccccc2)c1 (stereo not shown) [example 1, 2-[N-[3-[3-benzoyl-4-(2-phenylpropionyl)amino]phenylamino]carbamoyl]acetic Acid Methylester] | 19% | 89% |  |  | 

Compound | % Inhibition at 10 μM | % Inhibition at 100 μM | inhibition at 10 µM | inhibition at 100 µM | % Inhibition at 1 μM
Cc1ccc(CC(=O)Nc2ccc(NC(=O)Cc3ccccc3)cc2C(=O)c2ccccc2)cc1 [compound 16] | 0% | 94% |  |  | 0%
Cc1ccc(CC(=O)Nc2ccc(NC(=O)CCCC(=O)O)cc2C(=O)c2ccccc2)cc1 [example 5] | 0% | 59% |  |  | 
COC(=O)CC(=O)Nc1ccc(NC(=O)Cc2ccc(C)cc2)c(C(=O)c2ccccc2)c1 [example 2] | 19% | 95% |  |  | 
Cc1ccc(CC(=O)Nc2ccc(NC(=O)C=Cc3ccccc3)cc2C(=O)c2ccccc2)cc1 [compound 21] | 95% | 94% |  |  | 0%
CCCCCCCCCCCCCCNC(=O)CCCC(=O)Nc1ccc(NC(=O)Cc2ccc(C)cc2)c(C(=O)c2ccccc2)c1 [example 9] | 0% | 96% |  |  | 
Cc1ccc(CC(=O)Nc2ccc(NC(=O)CCCc3ccccc3)cc2C(=O)c2ccccc2)cc1 [compound 19] | 95% | 97% |  |  | 0%
Cc1ccc(CC(=O)Nc2ccc(NC(=O)C=Cc3ccc(-c4ccccc4)cc3)cc2C(=O)c2ccccc2)cc1 [compound 23, N-[3-[3-benzoyl-4-[2-(4-methylphenyl)acetyl]amino]phenylamino]-4-phenyl-cinnamic Acid Amide] | 94% | 94% |  |  | 82%
CCCCCCCCCCCCCCCC(=O)NCCC(=O)Nc1ccc(NC(=O)Cc2ccccc2)c(C(=O)c2ccccc2)c1 [compound 11, N-[3-[3-benzoyl-4-[(2-phenylacetyl)amino]phenylamino]-3-oxopropyl]-hexadecanoic Acid Amide] |  |  | 0% | 98% | 
Cc1ccc(CC(=O)Nc2ccc(NC(=O)C=Cc3ccc(OCc4ccccc4)cc3)cc2C(=O)c2ccccc2)cc1 [compound 24] | 96% | 97% |  |  | 85%
Cc1ccc(CC(=O)Nc2ccc(NC(=O)c3cccc4ccccc34)cc2C(=O)c2ccccc2)cc1 [compound 26] | 65% | 93% |  |  | 0%
N-[3-benzoyl-4-[2-(4-methylphenyl)acetyl]amino]phenyl]-4-(4-nitrophenyl)butyric Acid Amide [compound 31] | 93% | 96% |  |  | 0%
N-[2-[3-benzoyl-4-[[2-(4-methylphenyl)acetyl]amino]phenylamino]-2-oxo-ethyl]-4-benzoic Acid Amide [compound 25] | 0% | 86% |  |  | 0%
CCCCCCCCCCCCCCCCCCCC(=O)Nc1ccc(NC(=O)Cc2ccc(C)cc2)c(C(=O)c2ccccc2)c1 [compound 10, N-[3-benzoyl-4-[[2-(4-methylphenyl)acetyl]amino]phenyl]eicosanoic Acid Amide] |  |  | 0% | 99% | 
Cc1ccc(CC(=O)Nc2ccc(NC(=O)CCCCc3ccccc3)cc2C(=O)c2ccccc2)cc1 [compound 20] | 94% | 97% |  |  | 0%
COC(=O)CCC(=O)Nc1ccc(NC(=O)Cc2ccc(C)cc2)c(C(=O)c2ccccc2)c1 [example 4] | 0% | 29% |  |  | 
